In patent US10967086B2, “Silver nanoparticle-enhanced photosensitizers as antibiofilm agents” (University Of Cincinnati, priority 2014, dated 2021):
Counter-ions that a name gives are not always drawn.

Tests used:
[1] = Loading efficiency of photosensitizers in the hybrids (UV-Vis absorption); type: physicochemical; conditions: named photosensitizer loaded into Ag@mSiO2@photosensitizer hybrid; Example 1
Protocol: The loading efficiencies of the photosensitizers in the hybrids were determined by UV-Vis absorption. […] Zeta potential measurements were carried out to further investigate the surface properties of the hybrids.
The morphology of the Ag@mSiO2@photosensitizer hybrids was characterized by a Phillips Biotwin 12 transmission electron microscope (FEI). TEM samples were prepared by directly applying 10 μL of the sample ethanol solution onto a carbon-coated copper grid (300 mesh, EMS) and left to dry at room temperature. UV-Vis absorption spectra were measured using a UV-Vis spectrometer (USB4000-ISS, Ocean Optics). The loading efficiency of photosensitizers was determined by measuring the photosensitizers in the supernatant after centrifugation via UV-Vis absorption spectra. The Ag^+ concentration was measured by a triple quadruple ICP-MS (ICP-QQQ, Agilent Technologies).

[2] = tested on: Acinetobacter baumannii (ATCC 19606); experiment: Photodynamic inactivation assay, white light, plate count; type: cell-based; conditions: Example 2
Protocol: (§1) Photodynamic Inactivation Assays. Typically, overnight cultures of Staphylococcus epidermidis (ATCC 35984), Escherichia coli (ATCC 35218), and Acinetobacter baumannii (ATCC 19606) were inoculated into PBS buffer solution (pH=7.4) and mixed with a series of concentrations of Ag@mSiO2@HPIX hybrid, HPIX (dissolved in the same PBS buffer solution), or Ag@mSiO2 nanoparticles. All bacterial suspensions (200 μL) were then placed in the wells of 96-well plates. The final cell concentration of the suspensions was between about 10^6 and 10^7 colony-forming units per mL (CFU/mL). The wells were illuminated with different fluences. After illumination, a plate count was performed. Bacterial viability was determined by a modified version of the Miles and Misra method.
(§2) The suspensions were serially 10-fold diluted with PBS. Then, drops of 10 μL of each dilution were applied onto MH II agar plates. Plates were streaked in triplicate and incubated for 18-24 h at 37° C. in the dark before counting. A non-coherent, white light source with interchangeable fiber bundle (model LC-122, LumaCare) was used in all photoinactivation experiments. The irradiance at the position of the samples was kept at 300 mW/cm^2, as measured by a laser power meter (Model 840011, SPER Scientific). […]

[3] = tested on: Escherichia coli (ATCC 35218); experiment: as above; type: cell-based; conditions: Example 2
Protocol: as §1, §2

[4] = tested on: Staphylococcus epidermidis (ATCC 35984); experiment: as above; type: cell-based
Protocol: as §1
(§3) The suspensions were serially 10-fold diluted with PBS. Then, drops of 10 μL of each dilution were applied onto MH II agar plates. Plates were streaked in triplicate and incubated for 18-24 h at 37° C. in the dark before counting. A non-coherent, white light source with interchangeable fiber bundle (model LC-122, LumaCare) was used in all photoinactivation experiments. The irradiance at the position of the samples was kept at 300 mW/cm^2, as measured by a laser power meter (Model 840011, SPER Scientific).
Ag@mSiO2@HPIX was used as a model system in the PDI study. Ag@mSiO2@HPIX was first tested with S. epidermidis, a Gram-positive bacterium. […]

[5] = tested on: Escherichia coli (ATCC 35218) biofilm; experiment: Photodynamic inactivation of biofilms, LED, plate count; type: cell-based
Protocol: (§4) Typically, overnight biofilms of Escherichia coli (ATCC 35218), and S. aureus (MRSA) (ATCC BAA44) were washed with PBS buffer solution (pH=7.4), mixed with a series of concentrations of Ag@mSiO2@HPIX hybrid, HPIX (dissolved in the same PBS buffer solution), or Ag@mSiO2 nanoparticles, and these mixtures were incubated for an hour. All biofilms were illuminated with different fluences from a light emitting diode. After illumination, the biofilm was washed to remove the nanoparticle solution or HPIX and disrupted biofilm. A serial dilution was performed and 10 μL of each dilution was plated on an MHB place and incubated for 24 hours at 37° C. Bacterial biofilm viability was determined by a modified version of the Miles and Misra method.
as §3
(§5) The in vitro PDI of MRSA (ATCC BAA44) and E. coli (ATCC 35218) was investigated using different concentrations of Ag@mSiO2@HPIX hybrids, pure HPIX and Ag@mSiO2. Control experiments were carried out without the LED illumination. […] Separately, MRSA and E. coli samples were treated with an LED light source (400 nm, 1000 mW/cm2), after incubating for 1 h. with different concentrations of the Ag@mSiO2@HPIX hybrids, free HPIX, and Ag@mSiO2, respectively. […] Plate count method was employed to determine the viable biofilm count, after the growth of the biofilm became visible. […] In these experiments, the pure HPIX and Ag@mSiO2@HPIX hybrids have the same concentration of HPIX while the amounts of Ag in Ag@mSiO2@HPIX hybrids and Ag@mSiO2 was also kept constant.
(§6) The enhancement of antibiofilm PDI efficacy of Ag@mSiO2@HPIX hybrids is defined as log10(enhancement)=log10(Ag@mSiO2@HPIX_killing)−log10(Ag@mSiO2_killing)−log10(HPIX_killing)

[6] = tested on: S. aureus (MRSA) (ATCC BAA44) biofilm; experiment: as above; type: cell-based
Protocol: as §4, §3, §5, §6

T. rubrum (ATCC 28188) = experiment: Photodynamic inactivation of T. rubrum, LED, plate count; type: cell-based, Tricophyton rubrum
Protocol: The in vitro PDI of T. rubrum (ATCC 28188) was investigated using different concentrations of Ag@mSiO2@HPIX hybrids, pure HPIX and Ag@mSiO2. Control experiments were carried out without the LED illumination. […] Separately, T. rubrum samples were treated with an LED light source (400 nm, 54 mW/cm2), after incubating for 30 min. with different concentrations of the Ag@mSiO2@HPIX hybrids, free HPIX, and Ag@mSiO2, respectively. […] Plate count method was employed to determine the viable fungal count, after the growth of the T. rubrum became visible. […] In these experiments, the pure HPIX and Ag@mSiO2@HPIX hybrids have the same concentration of HPIX while the amounts of Ag in Ag@mSiO2@HPIX hybrids and Ag@mSiO2 was also kept constant. The enhancement of antifungal PDI efficacy of Ag@mSiO2@HPIX hybrids is defined as log10(enhancement)=log10(Ag@mSiO2@HPIX_killing)−log10(Ag@mSiO2_killing)−log10(HPIX_killing)

[7] = LED 400 nm, 1000 mW/cm2 (blue LED 1 W/cm^2, up to 90 min), after 1 h incubation
[8] = dark control, tested concentrations

## tris(2,2′-bipyridyl)dichlororuthenium(II) hexahydrate [RuBPy]
[1]
  loading efficiency: 28.3 µg/mg

## CCC1=C(C)c2cc3[nH]c(cc4[nH]c(cc5nc(cc1n2)C(C)=C5CC)c(C)c4CCC(=O)O)c(CCC(=O)O)c3C [PIX, meso-porphyrin IX]
[1]
  loading efficiency: 750 µg/mg

## Cc1cc2nc3c(=O)[nH]c(=O)nc-3n(C[C@H](O)[C@H](O)[C@H](O)CO)c2cc1C [Riboflavin, riboflavin]
[2]
  killing efficacy under visible light and near-infrared irradiations: needs visible light excitation to display rather moderate antibacterial effect
[3]
  killing efficacy under visible light and near-infrared irradiations: needs visible light excitation to display rather moderate antibacterial effect
[4]; Example 2
  killing efficacy under visible light and near-infrared irradiations: needs visible light excitation to display rather moderate antibacterial effect

## O=C(O)c1ccc(-c2c3nc(c(-c4ccc(C(=O)O)cc4)c4ccc([nH]4)c(-c4ccc(C(=O)O)cc4)c4nc(c(-c5ccc(C(=O)O)cc5)c5ccc2[nH]5)C=C4)C=C3)cc1 [TCPP, meso-tetra(4-carboxyphenyl) porphine]
[1]
  loading efficiency: 140.7 µg/mg

## O=C([O-])c1ccc(C2=C3C=CC(=N3)C(c3ccc(C(=O)[O-])cc3)=C3C=CC(=N3)C(=c3ccc(=C([O-])[O-])cc3)c3ccc([n-]3)C(c3ccc(C(=O)[O-])cc3)=C3C=CC2=N3)cc1.[67Cu+2].[H+].[H+].[H+].[H+] [Cu-TCPP, Cu(II) meso-tetra(4-carboxyphenyl) porphine]
[1]
  loading efficiency: 260.5 µg/mg

## CC1=C(CCC(=O)O)c2cc3[nH]c(cc4nc(cc5[nH]c(cc1n2)c(C)c5C(C)O)C(C)=C4C(C)O)c(C)c3CCC(=O)O (stereo not shown) [HPIX, hematoporphyrin IX dihydrochloride]
[5]; [7]
  PDI efficacy on biofilm under LED illumination: negligible PDI efficacy
[5]; [8]
  antibiofilm effects without LED illumination: None of the Ag@mSiO2@HPIX hybrids, pure HPIX or Ag@mSiO2 at the tested concentrations shows antibiofilm effects
[6]; [7]
  PDI efficacy on biofilm under LED illumination: negligible PDI efficacy
[6]; [8]
  antibiofilm effects without LED illumination: None of the Ag@mSiO2@HPIX hybrids, pure HPIX or Ag@mSiO2 at the tested concentrations shows antibiofilm effects
[1]
  loading efficiency: 27.4 µg/mg
[4]; parallel dark experiments
  antibacterial effect without light illumination: negligible antibacterial effect
T. rubrum (ATCC 28188); LED 400 nm, 54 mW/cm2, after 30 min incubation
  PDI efficacy under LED illumination: negligible PDI efficacy
T. rubrum (ATCC 28188); [8]
  antifungal effect without LED illumination: None of the Ag@mSiO2@HPIX hybrids, pure HPIX or Ag@mSiO2 at the tested concentrations shows antifungal effect

## O=C1OC2(c3cc(I)c(O)c(I)c3Oc3c2cc(I)c(O)c3I)c2c(Cl)c(Cl)c(Cl)c(Cl)c21 [RB, rose bengal]
[1]
  loading efficiency: 33.6 µg/mg
